# Reference: patent publication US10807951B2, “mTORC1 modulators” (THE REGENTS OF THE UNIVERSITY OF CALIFORNIA, priority 2017, dated 2020)
# Columns and labels:
# LAMTOR5 [1] = biological target: T1, LAMTOR5 (Homo sapiens, UniProt O43504); experiment: Gel-based ABPP against IA-alkyne labeling of pure LAMTOR5 protein; assay type: binding
# Source text: FIGS. 9A-9C. Potency and selectivity of YP 1-44 analogs. (FIG. 9A) initial YP 1-44 analogs and their relative potency against IA-alkyne labeling of pure human LAMTOR5 protein visualized by gel-based ABPP (a). Protein expression levels were also ascertained by silver staining (b). (FIG. 9B) Gel-based ABPP IA-alkyne cysteine-reactivity analysis of YP 1-44 analogs against Rag-Ragulator complex proteins (a). Protein expression levels were also ascertained by silver staining (b). (FIG. 9C) Hela whole cell proteome gel-based ABPP analysis of IA-alkyne cysteine-reactivity with YP 1-44 analogs (a). Protein expression levels were also ascertained by silver staining (b).
# Thus, we performed medicinal chemistry to optimize the potency and selectivity of our initial hits by addition of further bulk to the core YP 1-44 scaffold (FIGS. 9A-9C; FIG. 5B). We initially screened these compounds against both LAMTOR5 and the Ragulator complex using gel-based ABPP methods competing the binding of these YP 1-44 analogs against IA-alkyne labeling of these proteins (FIG. 5C, FIG. 9). We also tested these compounds against Hela cell whole proteome cysteine reactivity to get initial read-outs of proteome-wide selectivity (FIGS. 9A-9C, FIG. 5D).
# autophagy [2] = experiment: Immunoblotting for autophagic markers LC3b and p62 in HEK-293A cells; assay type: cell-based
# Procedure: FIGS. 6A-6D. CC 1-44 inhibits mTORC1 signaling and activates autophagy. (FIG. 6A) Visual IP experiment monitoring binding of GFP-RagB to RFP-tagged, bead-bound Lamtor complex. […] (FIG. 6B) Immunofluorescence for endogenous RagA and LAMP2 in HEK-293A cells treated with DMSO, YP 1-44 or CC 1-44 for 2 h. […] (FIG. 6C) Immunofluorescence for endogenous mTOR and LAMP2 in HEK-293A cells treated with DMSO or CC 1-44 for 2 h. […] (FIG. 6D) Immunoblotting for autophagic markers LC3b and p62 from HEK-293A cells treated with DMSO (lane 1) or CC 1-44 (lane 3) for 2 h.
# In cells treated with CC 1-44, autophagy becomes activated within 1 h, as judged by accumulation of cleaved LC3b and increased degradation of p62 (FIG. 6D).
# autophagy [3] = experiment: Autophagy induction in tissues of injected mice; assay type: in vivo; details: 100 mg/kg vs rapamycin 10 mg/kg, heart, skeletal muscle, kidney
# mTORC1 = mTORC1 signaling in tissues of injected mice; details: injection 100 mg/kg, heart, skeletal muscle, kidney
# LAMTOR5 [4] = biological target: T1, LAMTOR5; experiment: Rhodamine labeling with alkyne probe on purified Lamtor-Rag complexes; assay type: binding; details: excess unlabeled compound
# Source text: (§1) FIGS. 8A-8B. (FIG. 8A) Structures of CC 2-11 and CC 1-44. CC 2-11 bears an alkyne group on a separate ring from the cysteine-reactive warhead. The presence of the alkyne group enables us to directly label the modified target protein (e.g. Lamtor5) with biotin or rhodamine groups, either in gels or in complex proteomes. […] Thus, CC 2-11 allows precise mapping of the target cysteines as well as accurate identification of the off-targets.
# as §1, with “We also synthesized a” for “FIGS. 8A-8B. (FIG. 8A) Structures of”, “1-44 derivative, named” for “2-11 and”, “2-11, which” for “1-44. CC 2-11”, “warhead (FIG. 8A).” for “warhead.”, “will allow” for “allows”
compound,measurement,setting,value
C=CC(=O)N1CCc2c(OCc3cc(C(F)(F)F)cc(C(F)(F)F)c3)cccc21 [CC 1-44],potency against IA-alkyne labeling of LAMTOR5,LAMTOR5 [1],desirable potency
same,"autophagy (LC3b band increase, p62 band disappearance)","autophagy [2]; HEK-293A cells, 2 h",activation of autophagy
same,total autophagic flux,"autophagy [2]; HEK-293A cells, 2 h, with Bafilomycin A",increased
same,"time to autophagy activation (accumulation of cleaved LC3b, increased degradation of p62)",autophagy [2]; treated cells,≤ 1 h
same,autophagy induction compared to rapamycin,autophagy [3],superior potency to rapamycin
same,autophagy induction compared to rapamycin,autophagy [3]; listed as C 1-44,much stronger autophagy induction as compared to rapamycin
same,mTORC1 signaling as assessed by phospho-S6 and 4EBP1,mTORC1,dramatic inhibition of mTORC1 signaling
same,competition of CC 2-11 rhodamine labeling signal,LAMTOR5 [4],competes
